*1 amine or outer side, *2 acyl side, *3 side chain or, on linkers, in order; H or OH if unused. Where a SMILES comes first, the peptide text is derived from it. Bridges are numbered along the chain shown (N, C = ends). [ ]: non-standard residue; d: D form. The star is where a group is joined. DOTA = O=C(O)CN1CCN(CC(=O)O)CCN(CC(=O)*)CCN(CC(=O)O)CC1; β3hK = NCCCC[C@H](N)CC(=O)O; Hexanoyl = CCCCCC(=O)*; CO = O=C([*:1])[*:2]; NHBu = CCCCN*
How the values were obtained:
[1] = target: T1, FAP-expressing human WI-38 fibroblasts (Homo sapiens, UniProt Q12884); assay: Competitive FACS binding assay; details: competition with 3 nM Cy5-labeled compound, WI-38 fibroblasts, 4° C., 1 hour; read-out: pIC50 Category (FACS) (converted);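 also: flow cytometry read-out of median Cy5 fluorescence on the cells, plotted versus test compound concentration, with IC50 derived by four-parameter logistic curve fitting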
T1 construct: FAP-expressing human WI-38 fibroblasts (ECACC) were cultured in EMEM; host or cells: WI-38 human fibroblasts
T1 sequence (Q12884 whole entry): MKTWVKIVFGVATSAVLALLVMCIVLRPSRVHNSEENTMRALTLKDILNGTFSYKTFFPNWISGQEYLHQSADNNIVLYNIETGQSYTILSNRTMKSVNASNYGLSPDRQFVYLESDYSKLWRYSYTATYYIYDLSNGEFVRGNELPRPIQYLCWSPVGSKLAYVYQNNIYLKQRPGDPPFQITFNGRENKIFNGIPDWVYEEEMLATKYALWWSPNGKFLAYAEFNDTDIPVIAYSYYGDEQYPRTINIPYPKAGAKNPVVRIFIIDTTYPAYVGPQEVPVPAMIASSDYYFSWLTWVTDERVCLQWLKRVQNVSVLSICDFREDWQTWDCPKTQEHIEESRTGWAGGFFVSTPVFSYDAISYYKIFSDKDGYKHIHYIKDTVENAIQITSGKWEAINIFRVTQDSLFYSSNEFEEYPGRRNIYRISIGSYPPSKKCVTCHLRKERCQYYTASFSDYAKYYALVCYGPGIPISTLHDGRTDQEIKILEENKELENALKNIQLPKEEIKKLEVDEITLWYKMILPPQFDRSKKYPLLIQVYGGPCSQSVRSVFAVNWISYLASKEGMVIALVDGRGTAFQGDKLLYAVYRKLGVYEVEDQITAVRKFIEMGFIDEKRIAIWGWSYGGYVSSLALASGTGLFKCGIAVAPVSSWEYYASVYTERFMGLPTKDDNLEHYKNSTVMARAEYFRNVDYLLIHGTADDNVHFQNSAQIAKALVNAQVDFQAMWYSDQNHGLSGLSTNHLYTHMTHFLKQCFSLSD

Recombinant human FAP = target: T2, Recombinant human FAP (Homo sapiens, UniProt Q12884); assay: FRET-based FAP protease activity assay; type: biochemical; details: recombinant human FAP, FRET-peptide substrate, 37° C.; read-out: pIC50 Category (Activity) (converted)
T2 construct: purchased R&D systems 3715-SE
T2 sequence (Q12884 26-760 limits assumed): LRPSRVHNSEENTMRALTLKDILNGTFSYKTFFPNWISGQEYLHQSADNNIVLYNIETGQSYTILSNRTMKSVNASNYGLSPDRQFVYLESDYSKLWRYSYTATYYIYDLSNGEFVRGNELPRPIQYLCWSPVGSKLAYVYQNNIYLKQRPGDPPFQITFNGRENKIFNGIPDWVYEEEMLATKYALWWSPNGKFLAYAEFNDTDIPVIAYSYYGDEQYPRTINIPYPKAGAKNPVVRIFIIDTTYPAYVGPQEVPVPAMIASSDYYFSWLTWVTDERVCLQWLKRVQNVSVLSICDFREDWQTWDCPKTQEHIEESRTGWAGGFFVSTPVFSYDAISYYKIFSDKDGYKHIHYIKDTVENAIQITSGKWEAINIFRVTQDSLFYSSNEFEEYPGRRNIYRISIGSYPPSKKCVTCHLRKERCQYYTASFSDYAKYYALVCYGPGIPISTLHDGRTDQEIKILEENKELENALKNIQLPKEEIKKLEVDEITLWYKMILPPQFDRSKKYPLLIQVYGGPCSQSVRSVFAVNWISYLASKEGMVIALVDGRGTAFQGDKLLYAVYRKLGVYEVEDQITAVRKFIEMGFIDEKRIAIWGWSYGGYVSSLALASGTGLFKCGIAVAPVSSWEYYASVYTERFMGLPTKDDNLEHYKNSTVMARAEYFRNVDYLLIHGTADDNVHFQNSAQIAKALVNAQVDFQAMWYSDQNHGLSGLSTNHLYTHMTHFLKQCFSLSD

## CCCC[C@H](NC(=O)CCC(=O)NCCCOCCOCCOCCCNC(=O)CN1CCN(CC(=O)O)CCN(CC(=O)O)CCN(CC(=O)O)CC1)C(=O)N[C@H]1CSSC[C@@H](C(=O)O)NC(=O)[C@H](Cc2ccccc2)NC(=O)[C@H](CCC(N)=O)NC(=O)[C@H]([C@@H](C)O)NC(=O)[C@@H]2CCCN2C(=O)[C@@H]2CCCN2C1=O [Compound 1009, DOTA-Ttds-Nle-[Cys-Pro-Pro-Thr-Gln-Phe-Cys]-OH]
[1]
  IC50: < 100 nM
Recombinant human FAP
  IC50: < 100 nM

## CCCC[C@H](NC(=O)CCC(=O)NCCCOCCOCCOCCCNC(=O)CN1CCN(CC(=O)O)CCN(CC(=O)O)CCN(CC(=O)O)CC1)C(=O)N[C@H]1CSSC[C@@H](C(=O)NCCC(=O)O)NC(=O)[C@H](Cc2ccccc2)NC(=O)[C@H](CCC(N)=O)NC(=O)[C@H]([C@@H](C)O)NC(=O)[C@@H]2CCCN2C(=O)[C@@H]2CCCN2C1=O [Compound 1010, DOTA-Ttds-Nle-[Cys-Pro-Pro-Thr-Gln-Phe-Cys]-Bal-OH]
[1]
  IC50: < 100 nM
Recombinant human FAP
  IC50: < 100 nM

## CCCCCC(=O)N[C@H]1CSSC[C@@H](C(=O)N[C@@H](CCCCNC(=O)CN2CCN(CC(=O)O)CCN(CC(=O)O)CCN(CC(=O)O)CC2)CC(=O)O)NC(=O)[C@H](Cc2ccccc2)NC(=O)[C@H](CCC(N)=O)NC(=O)[C@H]([C@@H](C)O)NC(=O)[C@@H]2CCCN2C(=O)[C@@H]2CCCN2C1=O [Compound 1011, Hex-[Cys-Pro-Pro-Thr-Gln-Phe-Cys]-Bhk(DOTA)-OH]
[1]
  IC50: < 100 nM
Recombinant human FAP
  IC50: < 100 nM

## CCCCCC(=O)N[C@H]1CSSC[C@@H](C(=O)N[C@@H](CCCCNC(=O)CN2CCN(CC(=O)O)CCN(CC(=O)O)CCN(CC(=O)O)CC2)CC(=O)O)NC(=O)[C@H](Cc2ccccc2)NC(=O)[C@H](CCC(=O)O)NC(=O)[C@H]([C@@H](C)O)NC(=O)[C@@H]2CCCN2C(=O)[C@@H]2CCCN2C1=O [Compound 1012, Hex-[Cys-Pro-Pro-Thr-Glu-Phe-Cys]-Bhk(DOTA)-OH] (Hexanoyl-CPPTEFC[β3hK](DOTA)-OH; disulfide 1-7)
[1]
  IC50: < 100 nM
Recombinant human FAP
  IC50: < 100 nM

## CCCCCC(=O)N[C@H]1CSSC[C@@H](C(=O)N[C@@H](CC(=O)O)C(=O)N[C@@H](CCCCNC(=O)CN2CCN(CC(=O)O)CCN(CC(=O)O)CCN(CC(=O)O)CC2)C(N)=O)NC(=O)[C@H](Cc2ccccc2)NC(=O)[C@H](CCC(=O)O)NC(=O)[C@H]([C@@H](C)O)NC(=O)[C@@H]2CCCN2C(=O)[C@@H]2CCCN2C1=O [Compound 1013, Hex-[Cys-Pro-Pro-Thr-Glu-Phe-Cys]-Asp-Lys(DOTA)-NH2] (Hexanoyl-CPPTEFCDK(DOTA)-NH2; disulfide 1-7)
[1]
  IC50: < 100 nM
Recombinant human FAP
  IC50: < 100 nM

## CCCCNC(=O)N[C@H]1CSSC[C@@H](C(=O)N[C@@H](CCCCNC(=O)CN2CCN(CC(=O)O)CCN(CC(=O)O)CCN(CC(=O)O)CC2)CC(=O)O)NC(=O)[C@H](Cc2ccccc2)NC(=O)[C@H](CCC(=O)O)NC(=O)[C@H]([C@@H](C)O)NC(=O)[C@@H]2CCCN2C(=O)[C@@H]2CCCN2C1=O [Compound 1014, Buur-[Cys-Pro-Pro-Thr-Glu-Phe-Cys]-Bhk(DOTA)-OH] ({NHBu-CO}-CPPTEFC[β3hK](DOTA)-OH; disulfide 1-7)
[1]
  IC50: < 100 nM
Recombinant human FAP
  IC50: < 100 nM

## CCCCCC(=O)N[C@H]1CSSC[C@@H](C(=O)N[C@@H](CC(=O)O)C(=O)N[C@@H](CCCCNC(=O)CN2CCN(CC(=O)O)CCN(CC(=O)O)CCN(CC(=O)O)CC2)C(N)=O)NC(=O)[C@H](Cc2ccccc2)NC(=O)[C@H](CCC(N)=O)NC(=O)[C@H]([C@@H](C)O)NC(=O)[C@@H]2CCCN2C(=O)[C@@H]2CCCN2C1=O [Compound 1016, Hex-[Cys-Pro-Pro-Thr-Gln-Phe-Cys]-Asp-Lys(DOTA)-NH2] (Hexanoyl-CPPTQFCDK(DOTA)-NH2; disulfide 1-7)
[1]
  IC50: < 100 nM
Recombinant human FAP
  IC50: < 100 nM

## CCCC[C@H](NC(=O)CCC(=O)NCCCOCCOCCOCCCNC(=O)CC[C@H](C(=O)O)N1CCN(CC(=O)O)CCN(CC(=O)O)CC1)C(=O)N[C@H]1CSSC[C@@H](C(=O)NCCC(=O)O)NC(=O)[C@H](Cc2ccccc2)NC(=O)[C@H](CCC(N)=O)NC(=O)[C@H]([C@@H](C)O)NC(=O)[C@@H]2CCCN2C(=O)[C@@H]2CCCN2C1=O [Compound 1018, NODAGA-Ttds-Nle-[Cys-Pro-Pro-Thr-Gln-Phe-Cys]-Bal-OH]
[1]
  IC50: < 100 nM
Recombinant human FAP
  IC50: < 100 nM

From patent US20240115745A1, “COMPOUNDS COMPRISING A FIBROBLAST ACTIVATION PROTEIN LIGAND AND USE THEREOF” (3B PHARMACEUTICALS GMBH, priority 2021, published 2024)
